#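 96-well plates; 48 h exposure; 5 concentrations. Endpoints by linear interpolation between flanking doses. Not reached: highest tested concentration assigned. GI50 = concentration required for 50% inhibition of growth. TGI marks complete inhibition of growth.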
# How the values were obtained:
# Experiment in all cases: growth of human tumour cells (NCI), 48 h
# SN12C renal = system: SN12C renal
# SNB-19 CNS = system: SNB-19 CNS
# NCI-H460 lung = system: NCI-H460 lung
# NCI-H23 lung = system: NCI-H23 lung
# K-562 leukemia = system: K-562 leukemia
# SF-268 CNS = system: SF-268 CNS
# A549 NSCLC = system: A549 NSCLC
# HT29 colon = system: HT29 colon
# SK-OV-3 ovarian = system: SK-OV-3 ovarian
# NCI/ADR-RES ovarian = system: NCI/ADR-RES ovarian
SMILES,TGI (SN12C renal) [µM],TGI (SNB-19 CNS) [µM],TGI (NCI-H460 lung) [µM],TGI (NCI-H23 lung) [µM],TGI (K-562 leukemia) [µM],TGI (SF-268 CNS) [µM],TGI (A549 NSCLC) [µM],TGI (HT29 colon) [µM],TGI (SK-OV-3 ovarian) [µM],GI50 (SN12C renal) [µM],GI50 (SNB-19 CNS) [µM],GI50 (NCI-H460 lung) [µM],GI50 (NCI-H23 lung) [µM],GI50 (K-562 leukemia) [µM],GI50 (SF-268 CNS) [µM],GI50 (SK-OV-3 ovarian) [µM],GI50 (A549 NSCLC) [µM],GI50 (HT29 colon) [µM],TGI (NCI/ADR-RES ovarian) [µM],GI50 (NCI/ADR-RES ovarian) [µM]
COC(=O)c1c2c(cc3c1CC1(Cc4cc5c(c(C(C)=O)c4C1)CCC5)C3)CCC2 (stereo not drawn),> 100,> 100,> 100,> 100,> 100,> 100,> 100,> 100,,,,,,,,,,,,
COc1ccc(CCc2cc(OC)cc(OC)c2)cc1,> 100,> 100,> 100,> 100,71.8,> 100,> 100,47.9,> 100,,,,,,,,,,,
Cc1cc(N(CCC#N)CCC#N)ccc1N=Nc1ccc(Br)cc1,> 54.8,> 57.6,> 100,> 51.3,> 100,> 100,> 45.9,> 100,11.7,,,,,,,,,,,
CN1CCc2c1nc(-c1ccc(Cl)cc1)c1c2N(C)CC1,71.1,> 100,40.4,49.9,62.1,> 100,> 100,45.4,59.8,,,,,,,,,,,
CC1=NN(C(=O)c2ccc(Cl)cc2)C(=O)/C1=C/c1ccccc1O,> 100,> 100,> 100,> 100,> 100,> 100,> 100,> 100,> 100,,,,,,,,,,,
CSCCCNC(=O)c1ccc2c(c1)/C(=C/c1[nH]c(C)cc1C)C(=O)N2,> 100,> 100,> 100,> 100,> 100,> 100,> 100,> 100,62.8,0.571,25.6,0.872,1.59,2.01,1.98,0.366,2.75,4.95,,
CC(C)OP(=O)(OC(C)C)/C(N)=N/Nc1ccc([N+](=O)[O-])cc1,> 100,> 100,> 100,> 100,> 100,> 100,> 100,,,,,,,,,,,,,
COC(=O)CC(NC(=O)OCc1ccccc1)C(C(=O)OCc1ccccc1)C(C)(OC)OC (stereo not drawn),> 100,> 100,80.2,74.7,> 100,> 100,85.1,> 100,,,,,,,,,,,,
N.N.N.N.N.O=[N+]([O-])[O-].[Co+3].[O-][Cl+3]([O-])([O-])[O-],> 100,> 100,> 100,> 100,> 100,> 100,> 100,> 100,> 100,> 100,> 100,> 100,> 100,> 100,> 100,> 100,> 100,> 100,,
CC(C)(C)C(=CS(=O)/N=C/c1ccccc1)C(C)(C)C (stereo not drawn),51.7,> 100,73.2,> 100,86.4,> 100,> 100,> 100,69.8,,,,,,,,,,,
O=C1/C(=C/c2ccccc2)CN(C(=O)CCN2CCCC2)C/C1=C\c1ccccc1,3.16,6.69,4.52,4.35,4.69,5.8,14.6,2.54,20.5,,,,,,,,,,,
CC(=O)OCC(=O)[C@@]12OC(C)(C)O[C@@H]1C[C@H]1[C@@H]3CC(C=O)=C4C=C(OCCCl)CC[C@]4(C)[C@@]3(F)[C@@H](O)C[C@@]12C,> 100,> 100,88.4,42.2,> 100,> 100,> 100,36.8,> 100,,,,,,,,,,,
O=c1ncccn1C1OC(CO)C(O)C1O (stereo not drawn),> 100,> 100,> 100,> 100,> 100,> 100,> 100,> 100,> 100,,,,,,,,,,,
CC(=O)O[C@]1(C)OC(=O)[C@@H](CC(C)C)N1[N+](=O)[O-],> 100,> 100,> 100,> 100,> 100,,> 100,> 100,> 100,,,,,,,,,,,
COc1ccc(/C(Cl)=C/c2cc(OC)ccc2OC)cc1,> 100,> 100,,> 100,> 100,> 100,> 100,> 100,> 100,,,,,,,,,,,
O=c1[nH]c2ccccc2n1CCCN1CCC(n2c(=O)[nH]c3cc(Cl)ccc32)CC1,30.6,,32.2,31.2,65,,63.8,30.3,51.5,,,,,,,,,,60.8,
Cc1c(-c2ccnc(N)n2)c2c(n1Cc1ccccc1)C(=O)c1ccccc1C2=O,> 100,> 100,26.5,,44.4,,> 100,,77.4,> 100,18.1,6.42,,2.92,,18.2,> 100,,> 100,13.3
C#Cc1c(C)c(/C=C/C(C)=C/C(=O)OC)n(C)c1C,> 100,> 100,,> 100,> 100,> 100,> 100,> 100,> 100,,,,,,,,,,,
O=S(=O)(NCn1ccc2ccccc21)c1ccccc1,> 100,> 31.6,> 100,> 100,> 100,> 100,> 100,> 57.2,> 100,,,,,,,,,,,
CC1CCSC(N(C(=O)N(C)c2ccccc2)c2ccccc2)=N1 (stereo not drawn),> 100,> 100,> 100,> 100,> 100,> 100,> 100,> 100,> 100,,,,,,,,,,,

SMILES,TGI (SN12C renal) [µM],TGI (SNB-19 CNS) [µM],TGI (NCI-H460 lung) [µM],TGI (NCI-H23 lung) [µM],TGI (K-562 leukemia) [µM],TGI (SF-268 CNS) [µM],TGI (A549 NSCLC) [µM],TGI (HT29 colon) [µM],TGI (SK-OV-3 ovarian) [µM],GI50 (SN12C renal) [µM],GI50 (SNB-19 CNS) [µM],GI50 (NCI-H460 lung) [µM],GI50 (NCI-H23 lung) [µM],GI50 (K-562 leukemia) [µM],GI50 (SF-268 CNS) [µM],GI50 (SK-OV-3 ovarian) [µM],GI50 (A549 NSCLC) [µM],GI50 (HT29 colon) [µM],TGI (NCI/ADR-RES ovarian) [µM],GI50 (NCI/ADR-RES ovarian) [µM]
NNC(=O)C(=O)N/N=C1\CCC(=O)CC1C(=O)CCC(=O)Nc1ccc(Cl)cc1 (stereo not drawn),> 100,> 100,> 100,> 100,> 100,> 100,> 100,> 100,> 100,,,,,,,,,,,
Cc1ccc(N=Nc2c(O)ccc3ccccc23)cc1,> 100,> 100,,> 100,,> 100,> 100,> 100,> 100,,,,,,,,,,> 100,
COc1cc2c(cc1OCCCCCCN1CCN(CC(=O)Nc3ccc(Cl)cc3C(=O)c3ccccc3Cl)CC1)N=CC1CCCN1C2=O (stereo not drawn),1.08,0.632,0.334,0.468,,,0.765,0.576,1.17,0.298,0.244,0.18,0.198,0.193,,0.494,0.251,0.229,2.48,0.733
C=CCC1=C(C)C[C@@H]2CCC(=O)C=C12,> 100,> 100,> 100,> 100,> 100,> 100,> 100,> 100,> 100,,,,,,,,,,,
CCOC(=O)N1CCc2cc(OC)c(OC)cc2/C1=C\c1ccc(OC)c(OC)c1,> 100,> 100,,> 100,> 10,> 100,80.5,40.8,> 100,,,,,,,,,,,
S=c1nc(N/N=C/c2ccco2)c2cn[nH]c2[nH]1,> 100,> 100,> 100,> 100,> 100,> 100,> 100,,> 100,83.7,> 100,17.9,> 100,39.9,48.4,92.7,20,,> 100,> 100
C1CC[N-]CC1.CC(=N\O)/C(C)=N/O.CC(=N\O)/C(C)=N/O.OC1[CH-]CCCC1.[Co+2],> 100,> 100,> 100,,> 100,> 100,> 100,> 100,> 100,53.7,> 100,30.8,,33.4,44.8,> 100,58.5,72.5,> 100,> 100
NCCOCCOCCNc1nc(-c2ccc(Cl)cc2)nc(N2CCN(c3ccccn3)CC2)n1,20.8,,,3.83,,12.9,,3.78,6.28,6.17,,,1.86,,3.24,2.67,,1.85,16,3.66
Cc1c(NC(=S)NC(=O)c2ccc([N+](=O)[O-])cc2)c(=O)n(-c2ccccc2)n1C,> 100,> 100,> 100,> 100,> 100,> 100,> 100,> 100,> 100,,,,,,,,,,,
CCCC(=O)N[C@H]1C2C3CC4C5CC(C42)C1(C)C53 (stereo partly drawn),> 100,> 100,> 100,,> 100,> 100,> 100,> 100,> 100,,,,,,,,,,,
CC(C)CCCC(C)[C@H]1CCC2[C@@H]3CCC4Nc5c(cnn5-c5ccccc5)C[C@]4(C)C3CC[C@@]21C (stereo partly drawn),> 100,63.1,> 100,> 100,> 100,> 100,> 100,> 100,> 100,,,,,,,,,,,
O=C(O)CCNCCCCNCCC(=O)O,> 100,> 100,> 100,> 100,> 100,> 100,> 100,> 100,> 100,,,,,,,,,,,
c1ccc2c(c1)oc1ccc3nsnc3c12,,> 100,> 10,> 100,> 100,> 100,> 100,> 100,> 100,,,,,,,,,,,
O=C(Nc1ccc(-c2nc(-c3cccc(OCCN4CCOCC4)c3)c(-c3ccnc(Br)c3)[nH]2)cc1)c1ccccc1,> 100,9.07,9.3,8.78,,> 100,> 100,,4.79,6.94,2.19,2.81,2.47,,3.82,2.15,2.25,,> 100,5.2
CCOC(=O)CCn1ncc(Cl)c(Cl)c1=O,29.3,26.7,30.3,4.66,8.52,21.6,32.9,14.2,42.5,,,,,,,,,,,
C=CCO/N=C(\OC(=O)c1ccc([N+](=O)[O-])cc1)c1ccccc1,> 100,> 100,> 100,> 100,> 100,> 100,> 100,> 100,> 100,,,,,,,,,,,
N/N=C1\C(=O)N(c2ccc(Cl)cc2Cl)C(=O)C(=O)C1c1nc2ccccc2o1 (stereo not drawn),> 100,> 100,> 100,> 100,> 100,> 100,> 100,> 100,> 100,,,,,,,,,,,
COc1ccc(C(=O)NNc2nc(Cl)nc(N3CCN(C(c4ccccc4)c4ccccc4)CC3)n2)cc1,3.19,3.54,11.9,4.02,,4.31,39.1,,25.8,1.71,1.84,3.52,1.88,,2.01,11.9,17.9,,,
Cc1cccc(C)c1NC(=O)CCc1nc(=S)[nH][nH]1,> 100,> 100,> 100,> 100,> 100,> 100,> 100,,> 100,,,,,,,,,,,
C[C@]12CC[C@H](O)CC1=CC[C@@H]1C2CC[C@]2(C)Nc3c(cnn3-c3ccccc3)CC12 (stereo partly drawn),,,10.8,63,10.2,,37,4.88,20.7,,,,,,,,,,,
